Earlier results as cited in patent US20030021750A1, “Novel functional agents for magnetic resonance imaging” (priority 2001, published 2003).

Settings: thermodynamic stability of the Gd3+ chelate; background statement

Row | stability constant (K) / formation constant, logK | Compound
1 | 28.5 | O=C([O-])CN1CCN(CC(=O)[O-])CCN(CC(=O)[O-])CCN(CC(=O)[O-])CC1.[Gd+3] [Gd-DOTA]
2 | 22.4 | O=C([O-])CN(CCN(CC(=O)[O-])CC(=O)[O-])CCN(CC(=O)[O-])CC(=O)[O-].[Gd+3] [Gd(DTPA)^2−]
